According to publication PMC3973950, “Synthesis of 5-arylidine amino-1,3,4-thiadiazol-2-[(N-substituted benzyol)]sulphonamides endowed with potent antioxidants and anticancer activity induces growth inhibition in HEK293, BT474 and NCI-H226 cells” (Medicinal Chemistry Research, 2013):

Assays:
[1] = In vitro cytotoxicity by MTT assay, NCI-H226; format: cell-based; settings: human, NCI-H226 lung cancer cells, 0.015 μM, read-out: % Cytotoxicity (100 − % cell survival) of NCI-H226 cell line
In short: (§1)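 Cells grown in RPMI-1640 with 10 % […] newborn calf serum were seeded at about 10,000 cells per well and left 24 h to form a partial monolayer. Compounds were then added for 72 h at 37 °C, 5 % CO2, followed by MTT for 4 h, formazan solubilized in propanol and absorbance read at 490 nm.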

[2] = tested on: NCI-H226 (lung cancer cell line); assay: In vitro cytotoxicity by MTT assay, NCI-H226; format: cell-based; settings: Homo sapiens, 72 h, read-out: % Cytotoxicity (100 − % cell survival) of NCI-H226 cell line; for cytotoxicity at 0.005 µM: NCI-H226, 0.005 μM; for cytotoxicity at 0.045 µM: NCI-H226, 0.045 μM; for cytotoxicity at 0.13 µM: NCI-H226, 0.13 μM; for cytotoxicity at 0.41 µM: NCI-H226, 0.41 μM; for cytotoxicity at 1.23 µM: NCI-H226, 1.23 μM; for cytotoxicity at 3.7 µM: NCI-H226, 3.7 μM; for cytotoxicity at 11.11 µM: NCI-H226, 11.11 μM; for cytotoxicity at 33.33 µM: NCI-H226, 33.33 μM; for cytotoxicity at 100 µM: NCI-H226, 100 μM
In short: as §1

[3] = tested on: BT474 (breast cancer cell line); assay: In vitro cytotoxicity by MTT assay, BT474; format: cell-based; settings: Homo sapiens, 72 h, read-out: % cytotoxicity (100 − % cell survival) of BT474 cell line; for cytotoxicity at 0.005 µM: BT-474, 0.005 μM; for cytotoxicity at 0.015 µM: BT-474, 0.015 μM; for cytotoxicity at 0.045 µM: BT-474, 0.045 μM; for cytotoxicity at 0.13 µM: BT-474, 0.13 μM; for cytotoxicity at 0.41 µM: BT-474, 0.41 μM; for cytotoxicity at 1.23 µM: BT-474, 1.23 μM; for cytotoxicity at 3.7 µM: BT-474, 3.7 μM; for cytotoxicity at 11.11 µM: BT-474, 11.11 μM; for cytotoxicity at 33.33 µM: BT-474, 33.33 μM; for cytotoxicity at 100 µM: BT-474, 100 μM
In short: as §1

[4] = In vitro cytotoxicity by MTT assay, HEK 293; format: cell-based, human; settings: human, HEK 293 cells, read-out: % cytotoxicity (100 − % cell survival) of HEK 293 cell line
In short: as §1

Compound	cytotoxicity at 72 h, 0.015 µM [1] [%]	cytotoxicity at 0.005 µM [2] [%]	cytotoxicity at 0.045 µM [2] [%]	cytotoxicity at 0.13 µM [2] [%]	cytotoxicity at 0.41 µM [2] [%]	cytotoxicity at 1.23 µM [2] [%]	cytotoxicity at 3.7 µM [2] [%]	cytotoxicity at 11.11 µM [2] [%]	cytotoxicity at 33.33 µM [2] [%]	cytotoxicity at 100 µM [2] [%]	cytotoxicity at 0.005 µM [3] [%]	cytotoxicity at 0.015 µM [3] [%]	cytotoxicity at 0.045 µM [3] [%]	cytotoxicity at 0.13 µM [3] [%]	cytotoxicity at 0.41 µM [3] [%]	cytotoxicity at 1.23 µM [3] [%]	cytotoxicity at 3.7 µM [3] [%]	cytotoxicity at 11.11 µM [3] [%]	cytotoxicity at 33.33 µM [3] [%]	cytotoxicity at 100 µM [3] [%]	further results
CC(=O)Nc1ccc(S(=O)(=O)Nc2nnc(S(=O)(=O)NC(=O)c3ccc(Cl)cc3)s2)cc1 [Compound 6g]	35	33.5	36.8	37.3	39.8	40.6	41.3	42.6	43.2	46	30.5	32.8	33.9	34.1	37.6	38.2	39.5	42.4	44.2	46.4	cytotoxicity at 72 h, 0.005 µM [4]: 15.1%; cytotoxicity at 72 h, 0.015 µM [4]: 16.5%; cytotoxicity at 72 h, 0.045 µM [4]: 18%; cytotoxicity at 72 h, 0.13 µM [4]: 18.3%; cytotoxicity at 72 h, 0.41 µM [4]: 20.1%; cytotoxicity at 72 h, 1.23 µM [4]: 20.8%; cytotoxicity at 72 h, 3.7 µM [4]: 24.2%; cytotoxicity at 72 h, 11.11 µM [4]: 26.1%; cytotoxicity at 72 h, 33.33 µM [4]: 28.7%; cytotoxicity at 72 h, 100 µM [4]: 32%
Nc1ccc(S(=O)(=O)Nc2nnc(S(=O)(=O)NC(=O)c3ccccc3)s2)cc1 [Compound 7a]	28.4	27.4	29.2	29.4	30.4	32.2	34.5	35.1	36.2	36.9	34.1	35	36.7	37.8	38.2	39.5	40.7	41.8	43.7	46.3	cytotoxicity at 72 h, 0.005 µM [4]: 23.7%; cytotoxicity at 72 h, 0.015 µM [4]: 25.8%; cytotoxicity at 72 h, 0.045 µM [4]: 26.4%; cytotoxicity at 72 h, 0.13 µM [4]: 28.6%; cytotoxicity at 72 h, 0.41 µM [4]: 30.2%; cytotoxicity at 72 h, 1.23 µM [4]: 32.5%; cytotoxicity at 72 h, 3.7 µM [4]: 32.5%; cytotoxicity at 72 h, 11.11 µM [4]: 33.5%; cytotoxicity at 72 h, 33.33 µM [4]: 34.1%; cytotoxicity at 72 h, 100 µM [4]: 35.7%
Nc1ccc(S(=O)(=O)Nc2nnc(S(=O)(=O)NC(=O)c3ccccc3N)s2)cc1 [Compound 7b]	33.6	33.5	35.5	37	37.4	38.8	39.1	40.6	41.1	42.4	27.4	28.1	29.5	30.2	31.4	32.2	33.3	34.6	35.5	36.6	cytotoxicity at 72 h, 0.005 µM [4]: 37.8%; cytotoxicity at 72 h, 0.015 µM [4]: 39.2%; cytotoxicity at 72 h, 0.045 µM [4]: 40.5%; cytotoxicity at 72 h, 0.13 µM [4]: 44%; cytotoxicity at 72 h, 0.41 µM [4]: 45.3%; cytotoxicity at 72 h, 1.23 µM [4]: 46.5%; cytotoxicity at 72 h, 3.7 µM [4]: 47.8%; cytotoxicity at 72 h, 11.11 µM [4]: 48.2%; cytotoxicity at 72 h, 33.33 µM [4]: 50.7%; cytotoxicity at 72 h, 100 µM [4]: 51.9%
Nc1ccc(C(=O)NS(=O)(=O)c2nnc(NS(=O)(=O)c3ccc(N)cc3)s2)cc1 [Compound 7c]	34	33.2	34.8	36.6	37.8	38	38.2	38.6	38.9	40.3	18.8	19.4	19.8	20.1	21	22.8	24.2	25.7	26.4	27.9	cytotoxicity at 72 h, 0.005 µM [4]: 36.5%; cytotoxicity at 72 h, 0.015 µM [4]: 38.2%; cytotoxicity at 72 h, 0.045 µM [4]: 40.6%; cytotoxicity at 72 h, 0.13 µM [4]: 42.7%; cytotoxicity at 72 h, 0.41 µM [4]: 43.4%; cytotoxicity at 72 h, 1.23 µM [4]: 45.3%; cytotoxicity at 72 h, 3.7 µM [4]: 47.1%; cytotoxicity at 72 h, 11.11 µM [4]: 49.1%; cytotoxicity at 72 h, 33.33 µM [4]: 49.2%; cytotoxicity at 72 h, 100 µM [4]: 49.9%
